# Results as given in patent US20200038412A1, “METHODS OF TREATING ALZHEIMER'S DISEASE USING AMINOSTEROL COMPOSITIONS” (Enterin, Inc., priority 2018, published 2020).
# What was measured:
# [1] = system: patients with PD and constipation; assay: Phase 2 trial Stage 1: adverse events; assay type: in vivo, human; settings: Stage 1, 10 dosed
# Excerpt: Tolerability limits included diarrhea or vomiting.
# [2] = system: patients with PD and constipation; assay: Phase 2 trial Stage 2: adverse events; assay type: in vivo, human
# Experimental: In Stage 2, 34 patients were evaluated.
# αS = αS (Homo sapiens, UniProt P37840); settings: in vitro (Perni et al. 2017); cited from earlier work
compound,measurement,setting,value
"CC(C)[C@@H](CC[C@@H](C)[C@H]1CC[C@H]2[C@@H]3[C@H](O)C[C@H]4C[C@@H](NCCCNCCCCN)CC[C@]4(C)[C@H]3CC[C@]12C)OS(=O)(=O)O (single isomer, unassigned) [squalamine (ENT-01), squalamine]","Skin lesions-rash, Moderate",[1],"0 n, %"
same,"Urinary retention, Mild",[1],"0 n, %"
same,"Urinary retention, Moderate",[1],"0 n, %"
same,"Urinary tract infection, Mild",[1],"0 n, %"
same,"Urinary tract infection, Moderate",[1],"0 n, %"
same,"Vomiting, Mild",[1],"1 (10) n, %"
same,"Vomiting, Moderate",[1],"0 n, %"
same,"Worsening acid reflux, Mild",[1],"0 n, %"
same,"Worsening acid reflux, Moderate",[1],"0 n, %"
same,"Worsening hemorrhoid, Mild",[1],"0 n, %"
same,"Worsening hemorrhoid, Moderate",[1],"0 n, %"
same,"Blood in urine, Mild",[1]; unrelated to ENT-01,"1 (10) n, %"
same,"Loss of appetite, Mild",[1]; unrelated to ENT-01,"1 (10) n, %"
same,AEs confined to the GI tract,[2]; Stage 2,63%
same,Diarrhea (common adverse events by dose),"[2]; Stage 2, 75 mg",7
same,"Dizziness, lightheadedness included (common adverse events by dose)","[2]; Stage 2, 75 mg",8
same,Nausea (common adverse events by dose),"[2]; Stage 2, 75 mg",3
same,Diarrhea (common adverse events by dose),"[2]; Stage 2, 100 mg",10
same,"Dizziness, lightheadedness included (common adverse events by dose)","[2]; Stage 2, 100 mg",7
same,Nausea (common adverse events by dose),"[2]; Stage 2, 100 mg",12
same,Diarrhea (common adverse events by dose),"[2]; Stage 2, 125 mg",3
same,"Dizziness, lightheadedness included (common adverse events by dose)","[2]; Stage 2, 125 mg",8
same,Nausea (common adverse events by dose),"[2]; Stage 2, 125 mg",4
same,Diarrhea (common adverse events by dose),"[2]; Stage 2, 150 mg",2
same,"Dizziness, lightheadedness included (common adverse events by dose)","[2]; Stage 2, 150 mg",2
same,Nausea (common adverse events by dose),"[2]; Stage 2, 150 mg",11
same,Diarrhea (common adverse events by dose),"[2]; Stage 2, 175 mg",1
same,"Dizziness, lightheadedness included (common adverse events by dose)","[2]; Stage 2, 175 mg",0
same,Nausea (common adverse events by dose),"[2]; Stage 2, 175 mg",12
same,Diarrhea (common adverse events by dose),"[2]; Stage 2, 200 mg",3
same,Nausea (common adverse events by dose),"[2]; Stage 2, 200 mg",6
same,Diarrhea (common adverse events by dose),"[2]; Stage 2, 225 mg",3
same,Nausea (common adverse events by dose),"[2]; Stage 2, 225 mg",1
same,Diarrhea (common adverse events by dose),"[2]; Stage 2, 250 mg",2
same,patients with diarrhea,"[2]; Stage 2, 15/34 patients",44%
same,patients with nausea,"[2]; Stage 2, 18/34 patients",52.9%
same,"Abdominal pain, Mild","[2]; Stage 2, 34 dosed","4 (11.7) n, %"
same,"Abdominal pain, Moderate","[2]; Stage 2, 34 dosed","2 (5.8) n, %"
same,"Blood in urine, Mild","[2]; Stage 2, 34 dosed","0 n, %"
same,"Blood in urine, Moderate","[2]; Stage 2, 34 dosed","0 n, %"
same,"Diarrhea, Mild","[2]; Stage 2, 34 dosed","12 (35) n, %"
same,"Diarrhea, Moderate","[2]; Stage 2, 34 dosed","2 (5.8) n, %"
same,"Diarrhea, Severe","[2]; Stage 2, 34 dosed","1 (2.9) n, %"
same,"Difficulty falling asleep, Mild","[2]; Stage 2, 34 dosed","1 (3) n, %"
same,"Difficulty falling asleep, Moderate","[2]; Stage 2, 34 dosed","0 n, %"
same,"Dizziness, Mild","[2]; Stage 2, 34 dosed","7 (20.5) n, %"
same,"Dizziness, Moderate","[2]; Stage 2, 34 dosed","1 (2.9) n, %"
same,"Eye infection, Mild","[2]; Stage 2, 34 dosed","1 (3) n, %"
same,"Eye infection, Moderate","[2]; Stage 2, 34 dosed","0 n, %"
same,"Flatulence, Mild","[2]; Stage 2, 34 dosed","1 (3) n, %"
same,"Flatulence, Moderate","[2]; Stage 2, 34 dosed","0 n, %"
same,"Headache, Mild","[2]; Stage 2, 34 dosed","3 (8.8) n, %"
same,"Headache, Moderate","[2]; Stage 2, 34 dosed","0 n, %"
same,"Increased urinary frequency, Mild","[2]; Stage 2, 34 dosed","2 (5.8) n, %"
same,"Increased urinary frequency, Moderate","[2]; Stage 2, 34 dosed","0 n, %"
same,"Loss of appetite, Mild","[2]; Stage 2, 34 dosed","0 n, %"
same,"Loss of appetite, Moderate","[2]; Stage 2, 34 dosed","0 n, %"
same,"Nausea, Mild","[2]; Stage 2, 34 dosed","18 (52) n, %"
same,"Nausea, Moderate","[2]; Stage 2, 34 dosed","1 (2.9) n, %"
same,"Skin lesions-rash, Mild","[2]; Stage 2, 34 dosed","3 (8.8) n, %"
same,"Skin lesions-rash, Moderate","[2]; Stage 2, 34 dosed","0 n, %"
same,"Urinary retention, Mild","[2]; Stage 2, 34 dosed","1 (3) n, %"
same,"Urinary retention, Moderate","[2]; Stage 2, 34 dosed","0 n, %"
same,"Urinary tract infection, Mild","[2]; Stage 2, 34 dosed","1 (3) n, %"
same,"Urinary tract infection, Moderate","[2]; Stage 2, 34 dosed","2 (5.8) n, %"
same,"Vomiting, Mild","[2]; Stage 2, 34 dosed","2 (5.8) n, %"
same,"Vomiting, Moderate","[2]; Stage 2, 34 dosed","0 n, %"
same,"Worsening acid reflux, Mild","[2]; Stage 2, 34 dosed","4 (11.7) n, %"
same,"Worsening acid reflux, Moderate","[2]; Stage 2, 34 dosed","0 n, %"
same,"Worsening hemorrhoid, Mild","[2]; Stage 2, 34 dosed","1 (3) n, %"
same,"Worsening hemorrhoid, Moderate","[2]; Stage 2, 34 dosed","0 n, %"
same,patients terminated prior to completion because of recurrent dizziness,"[2]; Stage 2, two patients",5.8%
same,"Lower GI bleed, Severe","[2]; Stage 2, colonic diverticulosis, polyp, patient on aspirin, Plavix and naproxen, unrelated to ENT-01","1 (2.5) n, %"
same,formation of aggregates of αS,αS,inhibit the formation of aggregates of αS
